Usually MTD stands for the highest dose tested that stayed within the study's limit of toxicity. The low end stands for a narrow tolerated range, the high end for a wide tolerated range. What is called Cmax is the maximum level reached in the sampled fluid or tissue. As a reminder, the IC50 is the concentration needed to halve the response being measured. By melting point is commonly meant the temperature of the solid-liquid transition.

From patent publication US8486945B2, “Heterocyclic inhibitors of an Hh-signal cascade, medicinal compositions based thereon and methods for treating diseases caused by the aberrant activity of an Hh-signal system” (priority 2007, dated 2013) come the findings set out here.

Read-outs that look alike come from different tables or passages of the source. Where only a bound is given, the exact number is not on record here.

Data set [1] can be described thus: Maximum tolerated dose, intraperitoneal once daily for 5 days. Particulars: mouse, in vivo, ip, male SHK mice. How it is done: Maximum tolerated dose of compounds was determined in tests on male mice of SHK line by intraperitoneal once daily introduction of the compounds in doses from 30 to 300 mg/kg during 5 days. 8 Mice were used in each group. Weight of mice and also animals' mortality were registered. […] According to the classification of chemical compounds toxicity the investigated compounds may be referred to low-toxic substances.

Data set [2] is described as follows: Pharmacokinetic investigation in mice (PO and IP). The format is in vivo, mice of BALB/c line. The settings on record: BALB/c, mouse, plasma; for half-life: read-out: T½. How it is done: Pharmacokinetic investigations were carried out on mice of BALB/c line. All animals were divided into three groups in a random manner: two experimental groups were used for pharmacokinetic analyses at peroral (PO) and intraperitoneal (IP) ways of substance introduction in various doses, and the control group for getting intact blood plasma.
Blood samples were taken by decapitation of animals before introduction of medicament (control samples), and by decapitation in 5, 15, 30, 60, 120 and 240 minutes after introduction of medicament. Three mice were used for each time interval point.
Analysis of samples comprising compounds of the general formulas I-VIII was carried out by Chromato-Mass-Spectrometry method. The data were analysed by means of software package WinNonLin (Pharsight, CIIIA).
Oral bioavailability % F of compounds of the general formulas I-VIII was calculated on the basis of experimental results according to the following equation: % F=[AUC0→t,(PO)/AUC0→t,(IP)]×100%.

The nature of data set [3]: Pharmacokinetic investigation in mice (PO and IP). Particulars: BALB/c, mouse, plasma, read-out: % F (PO/IV). Type of data set: in vivo, mice of BALB/c line.
Another data set addresses T1, Smo receptors (Homo sapiens, UniProt Q99835).
T1 construct: expressed in transfected cells; host or cells: HEK cells (Smo-HEK)
The data set is described as follows: Displacement of bodipy-cyclopamine from Smo receptors in Smo-HEK cells. Type of data set: binding. The settings on record: half-maximal displacement of bodipy-cyclopamine. The method, then: Binding parameters to Smo receptors for some of compounds of the general formulas I-VIII are presented in table 11 as the values of half-maximal displacement of cyclopamine labelled with fluorescent dye (bodipy-cyclopamine). The tests were carried out for Smo-HEK cells, comprising artificially expressed protein Smo.

A further data set relates to Hh-signalling cascade. The data set is described as follows: Inhibition of SHh-induced alkaline phosphatase in C3H10T1/2 cells (Hh-signalling cascade inhibition). Type of data set: cell-based. Particulars: Mus musculus, C3H 10T1/2, half maximal inhibition of SHh (0.3 μg/ml) stimulation of cell alkaline phosphatase. An outline of the steps:
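C3H10T1/2 cells preincubated 30 min with compound (screen at 10 μM; IC50 from triplicate dilution series), then stimulated with 0.3 μg/ml recombinant SHh for 3 days at 37 °C. Alkaline phosphatase measured by CSPD luminescence in 0.2% Triton-X100 lysates; IC50 = half-maximal inhibition of SHh-induced activity.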

In data set [4] the test system is transcription factor Gli1. The data set is described as follows: Suppression of transcription factor Gli1 induction in Panc1 cell culture. The format is cell-based, human. Particulars: 20 mkM, 72 hours, Panc1 cells. How it is done:
Examples of suppression of the transcription factor Gli1 induction in human's tumor cell culture Panc1 by compounds of the general formulas I-VIII are presented in FIG. 2. […] This effect could be enhanced at combined action of the tested compound and kinas inhibitor (oncolitic Iressa). For caning out the experiments the tumour cell culture Panc1 was cultivated for 72 hours in the presence of 20 mkM of tested compounds.
Measurements of expression level Gli1 were carried out by determination of HGli mRNA amount according to the method [Lauth M., Bergstrom A., Shimokawa T., Toftgard R. Inhibition of GLI-mediated transcription and tumor cell growth by small-molecule antagonists. PNAS. 2007, 104(20): 8455-8460].

T1 sequence (Q99835 28-787): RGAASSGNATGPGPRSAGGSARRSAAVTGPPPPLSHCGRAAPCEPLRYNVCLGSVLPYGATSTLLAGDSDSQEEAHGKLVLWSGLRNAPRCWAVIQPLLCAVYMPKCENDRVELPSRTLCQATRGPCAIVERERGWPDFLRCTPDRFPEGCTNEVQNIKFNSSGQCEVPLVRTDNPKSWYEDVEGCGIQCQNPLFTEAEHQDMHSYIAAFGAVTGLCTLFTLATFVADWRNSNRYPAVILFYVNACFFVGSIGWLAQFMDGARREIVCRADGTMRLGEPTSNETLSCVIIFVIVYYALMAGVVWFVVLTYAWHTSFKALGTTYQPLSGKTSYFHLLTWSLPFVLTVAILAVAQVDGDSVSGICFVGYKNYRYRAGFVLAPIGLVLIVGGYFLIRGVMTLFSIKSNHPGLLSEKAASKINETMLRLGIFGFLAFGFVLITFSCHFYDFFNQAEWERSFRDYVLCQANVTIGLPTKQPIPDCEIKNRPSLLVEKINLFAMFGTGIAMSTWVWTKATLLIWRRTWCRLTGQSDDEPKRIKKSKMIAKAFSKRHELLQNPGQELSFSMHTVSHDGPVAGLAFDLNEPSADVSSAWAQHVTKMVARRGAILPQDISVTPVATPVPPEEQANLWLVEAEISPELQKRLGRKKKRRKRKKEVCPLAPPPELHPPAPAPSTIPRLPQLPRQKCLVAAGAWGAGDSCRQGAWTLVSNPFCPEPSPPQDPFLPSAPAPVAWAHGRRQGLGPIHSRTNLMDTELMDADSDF

In data set [1], `CN1CCN(C(=O)C2CCN(C(=O)c3cc4sccc4n3Cc3ccc(Cl)cc3)CC2)CC1` [V-1017, [4-(4-Chlorobenzyl)-4H-thieno[3,2-b]pyrrol-5-yl][4-(4-methylpiperazine-1-carbonyl)-piperidin-1-yl]methanone] came in with an MTD at 5 days of over 200 mg/kg. In addition, the peak concentration (Cmax) in data set [2] (IP, 5 mg/Kg) amounted to 289 ng/mL; in data set [2] (PO, 20 mg/Kg), 758 ng/mL. Further, the half-life worked out at 1.13 h in data set [2] (IP, 5 mg/Kg) and 2.28 h in data set [2] (PO, 20 mg/Kg). Besides, in data set [3], the bioavailability came to 63%. This compound returned an IC50 on Smo receptors of 40 nM.

With `Cc1cccc(N2CCN(C(=O)Cn3nc(C)c4c(C)n(-c5ccccc5)nc4c3=O)CC2)c1C` [I-1004, 2-Phenyl-3,4-dimethyl-6-{2-[4-(2,3-dimethylphenyl)piperazin-1-yl]-2-oxoethyl}-2,6-dihydro-7H-pyrazolo[3,4-d]pyridazin-7-one], the melting point fell in the range of 249 to 251 °C. Also, the IC50 in the data set on Hh-signalling cascade was under 500 nM.

The compound `Cc1nn(C(C)C(=O)N2CCN(Cc3ccccc3)CC2)c(=O)c2nn(-c3ccccc3)c(C)c12` (stereo not drawn) [I-1012, 2-Phenyl-3,4-dimethyl-6-{1-methyl-2-[4-benzylpiperazin-1-yl]-2-oxoethyl}-2,6-dihydro-7H-pyrazolo[3,4-d]pyridazin-7-one] returned a melting point of 152 to 154 °C. The same compound gave a half-maximal inhibitory concentration (IC50) with Hh-signalling cascade of under 500 nM.

`Cc1nn(C(C)C(=O)N2CCN(C3CCCCC3)CC2)c(=O)c2nn(-c3ccccc3)c(C)c12` (stereo not drawn) [I-1010, 2-Phenyl-3,4-dimethyl-6-{1-methyl-2-[4-cyclohexylpiperazin-1-yl]-2-oxoethyl}-2,6-dihydro-7H-pyrazolo[3,4-d]pyridazin-7-one]: the melting point lay in the range of 132 to 135 °C. In the data set on Hh-signalling cascade, this compound displayed an IC50 of under 500 nM.

With `Cc1nn(C(C)C(=O)N2CCN(c3cccc(Cl)c3)CC2)c(=O)c2nn(-c3ccccc3)c(C)c12` (stereo not drawn) [I-1009, 2-Phenyl-3,4-dimethyl-6-{1-methyl-2-[4-(3-chlorophenyl)piperazin-1-yl]-2-oxoethyl}-2,6-dihydro-7H-pyrazolo[3,4-d]pyridazin-7-one], the melting point lay within 194 to 196 °C. The IC50 with Hh-signalling cascade is under 500 nM.

Regarding `CCOc1ccc(NC(=O)c2ccnc(N3CCC(C(=O)Nc4ccc(C)c(C)c4)CC3)c2)cc1` [VI-1002, 3,4,5,6-Tetrahydro-2H-[1,2′]bipyridinyl-4,4′-carboxylic acid 4-[(3,4-dimethylphenyl)amide] 4′-[(4-ethoxyphenyl)amide]], the melting point is 235 to 237 °C. The compound further showed an IC50 in the data set on Hh-signalling cascade of under 5000 nM.

Regarding `Cc1nn(CC(=O)N2CCN(c3ccccc3F)CC2)c(=O)c2nn(-c3ccccc3)c(C)c12` [I-1007, 2-Phenyl-3,4-dimethyl-6-{2-[4-(2-fluorophenyl)piperazin-1-yl]-2-oxoethyl}-2,6-dihydro-7H-pyrazolo[3,4-d]pyridazin-7-one], the melting point lay in the range of 240 to 242 °C. For the same compound, the IC50 in the data set on Hh-signalling cascade is under 500 nM.

`CN1CCc2c(sc(NC(=O)C3CCCCC3)c2-c2nc3ccccc3s2)C1.Cl` [VIII-1001, Cyclohexanecarboxylic acid (3-benzo[d]thiazol-2-yl-6-methyl-4,5,6,7-tetrahydrothieno[2,3-c]pyridin-2-yl)amide] gave an IC50 in the data set on Hh-signalling cascade of under 500 nM. Moreover, in data set [1], the MTD at 5 days was over 100 mg/kg. In data set [2] (IP, 100 mg/Kg), the highest level (Cmax) was 45 ng/mL and the half-life was found to be 4.9 h.

Regarding `COc1cccc(N2CCN(C(=O)Cn3nc(C)c4c(C)n(-c5ccccc5)nc4c3=O)CC2)c1` [I-1001, 2-Phenyl-3,4-dimethyl-6-{2-[4-(3-methoxyphenyl)piperazin-1-yl]-2-oxoethyl}-2,6-dihydro-7H-pyrazolo[3,4-d]pyridazin-7-one], in the data set with Hh-signalling cascade, the IC50 is under 500 nM. In data set [1], this compound came in with an MTD at 5 days of over 200 mg/kg. In data set [4], the “Suppression of Gli1 expression (HGli mRNA)” value is on record as “block effectively Hh-signalling cascade”. Besides, in data set [2] (PO, 5 mg/Kg), the half-life worked out at 2.08 h. For the same compound, the Cmax in data set [2] (PO, 20 mg/Kg) was found to be 4460 ng/mL. In addition, the bioavailability in data set [3] was determined as 35%.

Turning to `Cc1ccc(S(=O)(=O)N2CCCc3cc(C(=O)Nc4c(C)cc(C)cc4C)ccc32)cc1` [VII-1001, 1-Tosyl-1,2,3,4-tetrahydroquinoline-6-carboxylic acid (2,4,6-mesityl)amide], the melting point is 252 to 255 °C. Moreover, the IC50 in the data set on Hh-signalling cascade was under 500 nM. Moreover, the “Suppression of Gli1 expression (HGli mRNA)” value in data set [4] is given as “block effectively Hh-signalling cascade”.

`O=C(c1cc2sccc2n1Cc1ccc(Cl)cc1)N1CCC(C(=O)N2CCCCCC2)CC1` [V-1043, 1-[4-(4-Chlorobenzyl)-4H-thieno[3,2-b]pyrrole-5-carbonyl]piperidine-4-carboxylic acid hexamethylene amide]: the IC50 is under 5000 nM in the data set on Hh-signalling cascade and 69 nM at Smo receptors. The same compound gave an MTD at 5 days in data set [1] of over 200 mg/kg. Further, the Cmax in data set [2] (IP, 5 mg/Kg) was 167 ng/mL; in data set [2] (PO, 5 mg/Kg), 71 ng/mL. Moreover, the half-life in data set [2] (IP, 5 mg/Kg) was 1.07 h. The bioavailability in data set [3] stood at 3%.

`CCOc1ccc(NC(=O)c2ccnc(N3CCC(C(=O)Nc4ccccc4OC)CC3)c2)cc1` [VI-1006, 3,4,5,6-Tetrahydro-2H-[1,2′]bipyridinyl-4,4′-carboxylic acid 4′-[(4-ethoxyphenyl)amide] 4-[(2-methoxyphenyl)amide]] came in with a melting point of 182 to 184 °C. In the data set on Hh-signalling cascade, the IC50 was under 5000 nM.

In the case of `Cc1nn(CC(=O)N2CCN(c3ccc(F)cc3)CC2)c(=O)c2nn(-c3ccccc3)c(C)c12` [I-1006, 2-Phenyl-3,4-dimethyl-6-{2-[4-(4-fluorophenyl)piperazin-1-yl]-2-oxoethyl}-2,6-dihydro-7H-pyrazolo[3,4-d]pyridazin-7-one], the melting point lay within 257 to 259 °C. Also, the IC50 in the data set with Hh-signalling cascade is under 500 nM.

In turn, `Cc1ccc(C)c(N2CCN(C(=O)Cn3nc(C)c4c(C)n(-c5ccccc5)nc4c3=O)CC2)c1` [I-1005, 2-Phenyl-3,4-dimethyl-6-{2-[4-(2,5-dimethylphenyl)piperazin-1-yl]-2-oxoethyl}-2,6-dihydro-7H-pyrazolo[3,4-d]pyridazin-7-one] showed a melting point of 232 to 234 °C. The compound also displayed an IC50 in the data set on Hh-signalling cascade of under 500 nM.

For `Cc1cc(C)cc(NC(=O)C2CCN(C(=O)c3cc4sccc4n3Cc3ccc(F)cc3)CC2)c1` [V-1002, 1-[4-(4-Fluorobenzyl)-4H-thieno[3,2-b]pyrrole-5-carbonyl]piperidine-4-carboxylic acid (3,5-dimethylphenyl)amide], the melting point is 203 to 205 °C. Moreover, the IC50 in the data set with Hh-signalling cascade was under 500 nM.

The compound `Cc1nn(CC(=O)N2CCN(c3cccc(Cl)c3)CC2)c(=O)c2nn(-c3ccccc3)c(C)c12` [I-1002, 2-phenyl-3,4-dimethyl-6-{2-[4-(3-chlorophenyl)piperazin-1-yl]-2-oxoethyl}-2,6-dihydro-7H-pyrazolo[3,4-d]pyridazin-7-one] gave a melting point of 257 to 259 °C. In the data set on Hh-signalling cascade, the IC50 was under 500 nM.

With `Cc1nn(C(C)C(=O)N2CCN(c3ccccc3)CC2)c(=O)c2nn(-c3ccccc3)c(C)c12` (stereo not drawn) [I-1008, 2 Phenyl-3,4-dimethyl-6-[1-methyl-2-(4-phenylpiperazin-1-yl)-2-oxoethyl]-2,6-dihydro-7H-pyrazolo[3,4-d]pyridazin-7-one], the melting point fell in the range of 193 to 195 °C. In addition, the half-inhibitory concentration (IC50) with Hh-signalling cascade was under 500 nM.
